Test results published in PubChem BioAssay AID330 (DTP/NCI, 2004).
“And” between values parts separate entries of the source, which are not always exact repeats. Equal values may be shown once. Inconclusive results and toxic doses are left out. The calls were made as follows: active = survival T/C of 150% or more; inactive = T/C below 125% in these data. Peptide text beside a SMILES is read from it. * marks the point of attachment. Cbz = O=C(OCc1ccccc1)*

System: P388 leukemia ip, CD2F1 mice, survival T/C
Test: NCI In Vivo Anticancer Drug Screen. Data for tumor model P388 Leukemia (intraperitoneal) in CD2F1 (CDF1) mice
Conditions: endpoint: median survival time, higher = longer survival
Outline: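 Mice carrying the transplanted tumor received test compound or vehicle. Survival was recorded in each group, and the value is the treated-group measurement divided by that of the vehicle-treated control group.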

[1] = dose: 50.0 mg/kg/injection, schedule: Q01DX005 (ip), vehicle: saline with Tween-80
[2] = dose: 100.0 mg/kg/injection, schedule: Q01DX005 (ip), vehicle: saline with Tween-80
[3] = dose: 200.0 mg/kg/injection, schedule: Q01DX005 (ip), vehicle: saline with Tween-80
[4] = dose: 50.0 mg/kg/injection, schedule: Q01DX009 (ip), vehicle: saline
[5] = dose: 100.0 mg/kg/injection, schedule: Q01DX009 (ip), vehicle: saline
[6] = dose: 200.0 mg/kg/injection, schedule: Q01DX009 (ip), vehicle: saline
[7] = dose: 50.0 mg/kg/injection, schedule: Q01DX005 (ip), vehicle: saline
[8] = dose: 100.0 mg/kg/injection, schedule: Q01DX005 (ip), vehicle: saline
[9] = dose: 100.0 mg/kg/injection, schedule: Q04DX003 (ip), vehicle: saline
[10] = dose: 200.0 mg/kg/injection, schedule: Q04DX003 (ip), vehicle: saline
[11] = dose: 400.0 mg/kg/injection, schedule: Q04DX003 (ip), vehicle: saline
[12] = dose: 50.0 mg/kg/injection, schedule: Q01DX005 (ip), vehicle: Klucel (hydroxypropylcellulose) (HPC)
[13] = dose: 100.0 mg/kg/injection, schedule: Q01DX005 (ip), vehicle: Klucel (hydroxypropylcellulose) (HPC)
[14] = dose: 200.0 mg/kg/injection, schedule: Q01DX005 (ip), vehicle: Klucel (hydroxypropylcellulose) (HPC)
[15] = dose: 60.0 mg/kg/injection, schedule: Q01DX005 (ip), vehicle: saline with Tween-80
[16] = dose: 120.0 mg/kg/injection, schedule: Q01DX005 (ip), vehicle: saline with Tween-80
[17] = dose: 240.0 mg/kg/injection, schedule: Q01DX005 (ip), vehicle: saline with Tween-80
[18] = dose: 25.0 mg/kg/injection, schedule: Q01DX005 (ip), vehicle: saline with Tween-80
[19] = dose: 60.0 mg/kg/injection, schedule: Q01DX005 (ip), vehicle: saline
[20] = dose: 120.0 mg/kg/injection, schedule: Q01DX005 (ip), vehicle: saline
[21] = dose: 240.0 mg/kg/injection, schedule: Q01DX005 (ip), vehicle: saline

Measured: T/C

COc1cc(O)c(C(C)=O)c(O)c1
inactive: dose: 6.25 mg/kg/injection, schedule: Q01DX009 (ip), vehicle: saline with Tween-80 102 % of control | dose: 12.5 mg/kg/injection, schedule: Q01DX009 (ip), vehicle: saline with Tween-80 93 % of control | dose: 25.0 mg/kg/injection, schedule: Q01DX009 (ip), vehicle: saline with Tween-80 102 % of control | dose: 50.0 mg/kg/injection, schedule: Q01DX009 (ip), vehicle: saline with Tween-80 100 % of control

CCCCCCCN(CCCCCCC)CC(O)c1ccc2cc(Cl)c3ccccc3c2c1 (stereo not given)
inactive: [1] 107 % of control | [2] 112 % of control | [3] 105 % of control

CC1=NN(c2cc(S(=O)(=O)O)ccc2Cl)C(=O)C1
inactive: [4] 101 % of control | [5] 105 % of control | [6] 97 % of control

NC(N)=NCCSCc1ccc2ccccc2n1
inactive: [7] 94 % of control | [8] 101 % of control

C#CC(C)(C)Oc1ccc2c(=O)c(-c3ccc(OC)cc3)coc2c1
inactive: [1] 94 % of control | [2] 89 % of control

C=CCN1CCCC1=O
inactive: [9] 100 % of control | [10] 100 % of control | [11] 95 % of control

O=C(OCCn1ncnn1)c1ccc([N+](=O)[O-])cc1
inactive: [12] 104 % of control | [13] 104 % of control | [14] 95 % of control

COc1cc(C(c2c(O)c3ccccc3oc2=O)N2CCCC2)cc(OC)c1OC (stereo not given)
inactive: [15] 107 % of control | [16] 101 % of control | [17] 104 % of control

CC1(C)CC(=O)N(Cc2ccccc2)N1C(=O)c1ccccc1
inactive: dose: 50.0 mg/kg/injection, schedule: Q01DX001 (ip), vehicle: saline with Tween-80 100 % of control | dose: 100.0 mg/kg/injection, schedule: Q01DX001 (ip), vehicle: saline with Tween-80 95 % of control | dose: 200.0 mg/kg/injection, schedule: Q01DX001 (ip), vehicle: saline with Tween-80 100 % of control

CCc1nc(N)nc(N)c1-c1ccc(Cl)c(NN=NC)c1
inactive: dose: 12.5 mg/kg/injection, schedule: Q01DX005 (ip), vehicle: saline with Tween-80 109 % of control | [18] 108 % of control | [1] 105 % of control and 110 % of control | [2] 112 % of control

C1CC[N-]CC1.C1CC[N-]CC1.C1CC[N-]CC1.C1CC[N-]CC1.[Pt+4]
inactive: dose: 2.0 mg/kg/injection, schedule: Q01DX009 (ip), vehicle: saline 95 % of control | dose: 4.0 mg/kg/injection, schedule: Q01DX009 (ip), vehicle: saline 89 % of control | dose: 8.0 mg/kg/injection, schedule: Q01DX009 (ip), vehicle: saline 93 % of control

C=CCCc1c(OC)cccc1C1=NC(C)(C)CO1
inactive: [1] 106 % of control | [2] 102 % of control | [3] 100 % of control

NC(=N/C(=C/c1ccccc1)c1ccccc1)c1ccccc1
inactive: [1] 92 % of control | [2] 102 % of control

CCOC(=O)c1cnc(NCCCCCCCCNc2ncc(C(=O)OCC)c(=O)[nH]2)[nH]c1=O
inactive: [4] 103 % of control | [5] 102 % of control | [6] 90 % of control and 97 % of control

O=S(=O)(c1ccc(N=Cc2cccs2)cc1)c1ccc(N=Cc2cccs2)cc1
inactive: [4] 99 % of control | [5] 98 % of control | [6] 91 % of control and 95 % of control

C[C@]12CCC(=O)C[C@@H]1CC[C@@H]1[C@@H]2CC[C@]2(C)[C@@H](OC(=O)N(CCCl)N=O)CC[C@@H]12
inactive: dose: 25.0 mg/kg/injection, schedule: Q01DX005 (ip), vehicle: other 105 % of control | dose: 25.0 mg/kg/injection, schedule: Q01DX009 (ip), vehicle: other 120 % of control | dose: 25.0 mg/kg/injection, schedule: Q01DX009 (ip), vehicle: saline 106 % of control | dose: 31.2 mg/kg/injection, schedule: Q04DX003 (ip), vehicle: saline 116 % of control | dose: 50.0 mg/kg/injection, schedule: Q01DX005 (ip), vehicle: other 105 % of control | [4] 121 % of control | dose: 62.5 mg/kg/injection, schedule: Q04DX003 (ip), vehicle: saline 110 % of control | dose: 100.0 mg/kg/injection, schedule: Q01DX005 (ip), vehicle: other 112 % of control | dose: 100.0 mg/kg/injection, schedule: Q01DX009 (ip), vehicle: other 100 % of control

CC(C)C1=CC2C3C(=O)NC(=O)C3C1C1C3C(=O)NC(=O)C3C21 (stereo not given)
inactive: [19] 98 % of control | [20] 100 % of control | [21] 100 % of control

O=C(O)c1ncc2ncccc2c1O
inactive: [4] 107 % of control | [5] 104 % of control | [6] 101 % of control

CC(C)CC(NC(=O)C(Cc1ccccc1)NC(=O)OCc1ccccc1)C(=O)NC(C)C(=O)O (stereo not drawn) (Cbz-Phe-Leu-Ala-OH; configuration not given here)
inactive: [1] 95 % of control | [2] 97 % of control | [3] 104 % of control

CN(C)N1Cc2ccccc2NC1=O
inactive: [12] 102 % of control | [13] 96 % of control | [14] 110 % of control

O=C(Nc1ccc(C2=NCCN2)c(O)c1)c1cccc(C(=O)Nc2ccc(C3=NCCN3)c(O)c2)c1
inactive: dose: 25.0 mg/kg/injection, schedule: Q01DX005 (ip), vehicle: Klucel (hydroxypropylcellulose) (HPC) 97 % of control | [12] 97 % of control | [13] 97 % of control | [14] 102 % of control

Cc1ccc(S(=O)(=O)N/N=C2/CCCC(S(=O)(=O)c3ccc(C)cc3)C2)cc1 (stereo not given)
inactive: [18] 111 % of control | [1] 98 % of control | [2] 93 % of control

CC1SC(C)C1O (stereo not given)
inactive: [19] 104 % of control | [20] 108 % of control | [21] 93 % of control

Cc1ncc2c(n1)-c1ccccc1OC2O (stereo not given)
inactive: [4] 103 % of control | [5] 91 % of control | [6] 100 % of control

O=P(c1ccccc1)(c1ccccc1)c1ccccc1.[Cl][Sn]([c]1ccccc1)([c]1ccccc1)[c]1ccccc1
inactive: [9] 100 % of control | [10] 106 % of control | [11] 118 % of control

C=C(C)C1CC(=O)C2(C)OC2C1 (stereo not given)
inactive: dose: 100.0 mg/kg/injection, schedule: Q04DX002 (ip), vehicle: saline 101 % of control | dose: 200.0 mg/kg/injection, schedule: Q04DX002 (ip), vehicle: saline 100 % of control | dose: 400.0 mg/kg/injection, schedule: Q04DX002 (ip), vehicle: saline 97 % of control

CCC1(C(=O)c2ccccc2)C(C(=O)OC)=NC(=N)N=C1C(=O)OC (stereo not given)
inactive: [15] 100 % of control | [16] 95 % of control

O=NNc1cccnc1Cl
inactive: dose: 1.56 mg/kg/injection, schedule: Q01DX009 (ip), vehicle: water 110 % of control | dose: 3.12 mg/kg/injection, schedule: Q01DX009 (ip), vehicle: water 102 % of control and 108 % of control | dose: 6.25 mg/kg/injection, schedule: Q01DX009 (ip), vehicle: water 99 % of control and 98 % of control | dose: 12.5 mg/kg/injection, schedule: Q01DX009 (ip), vehicle: water 107 % of control and 110 % of control | dose: 25.0 mg/kg/injection, schedule: Q01DX009 (ip), vehicle: water 107 % of control and 117 % of control | dose: 50.0 mg/kg/injection, schedule: Q01DX009 (ip), vehicle: water 105 % of control

O=C1OC(=O)C2C3c4ccccc4C(c4ccccc43)C12 (stereo not given)
inactive: [1] 115 % of control and 117 % of control | [2] 110 % of control and 121 % of control | [3] 120 % of control and 122 % of control | dose: 400.0 mg/kg/injection, schedule: Q01DX005 (ip), vehicle: saline with Tween-80 121 % of control

O=C1CN(N2CCOCC2)CC(=O)N2CCCCN12
inactive: [7] 100 % of control | [8] 109 % of control | dose: 200.0 mg/kg/injection, schedule: Q01DX005 (ip), vehicle: saline 109 % of control

NC(S(=O)(=O)O)S(=O)(=O)O
inactive: [4] 105 % of control | [5] 110 % of control | [6] 96 % of control

CCC(/C=C/c1ccc(C)cc1)=N\NC(=O)c1ccccc1
inactive: [15] 98 % of control | [16] 89 % of control | [17] 90 % of control
